From DBAASP come the findings set out here.

Converted amounts (≈) assume the structure as drawn. “And” between values parts separate entries of the source, which are not always exact repeats. Identical values can stand only once.

What is called MIC is the smallest concentration in the dilution series that meets the test's criterion for growth inhibition.

Test systems include Bacillus subtilis; Micrococcus luteus; Bacillus subtilis 168; Staphylococcus aureus.
Holding throughout (test): ≥ marks a high value that may be exact or a test limit, other limits are often not marked, values filed in µg/mL are converted to µM
The test system of test [1] is Escherichia coli ATCC 25922.
Test [2] deals with Staphylococcus aureus ATCC 25923.
The subject of test [3] is Pseudomonas aeruginosa PAO1.
The test system of test [4] is Acinetobacter baumannii ATCC 19606.
The subject of test [5] is Salmonella enterica subsp. enterica serovar Typhimurium ATCC 14028.
Test [6] deals with Klebsiella pneumoniae ATCC 13883.
Test [7] deals with Escherichia coli DH5alpha.
Test [8] relates to Staphylococcus aureus NCTC 8325.
Test [9] has as its system Candida albicans ATCC 90028.

In the case of `CC(C)C[C@H](NC(=O)[C@H](CCCCN)NC(=O)[C@H](CCCCN)NC(=O)[C@H](C)NC(=O)[C@H](Cc1c[nH]c2ccccc12)NC(=O)CNC(=O)[C@H](CCCCN)NC(=O)[C@@H](N)CCCCN)C(=O)N[C@@H](C)C(=O)N[C@@H](Cc1ccccc1)C(=O)N[C@@H](C)C(=O)N[C@@H](Cc1ccccc1)C(=O)NCC(=O)N[C@@H](CCCCN)C(=O)N[C@@H](CCCCN)C(=O)O` [KKGWAKKLAFAFGKK], the minimal inhibitory concentration (MIC) in test [1] is 7.3 µM and 8.9 µM; in test [2] it was > 30 µM; in test [3] it was 20.7 µM and 23.7 µM; in test [4] it was > 30 µM; in test [5], 22.2 µM (≈ 37.9 µg/mL); in test [6], 30 µM (≈ 51.2 µg/mL).
Regarding `CC[C@H](C)[C@@H]1NC(=O)CNC(=O)[C@H](Cc2c[nH]c3ccccc23)NC(=O)[C@@H]2CSSC[C@H](NC(=O)[C@H](C)N)C(=O)N[C@@H](CCC(N)=O)C(=O)N[C@@H](Cc3ccccc3)C(=O)N[C@@H](Cc3c[nH]c4ccccc34)C(=O)N[C@@H](CO)C(=O)N[C@H]3CSSC[C@H](NC(=O)[C@H](Cc4ccc(O)cc4)NC(=O)[C@H](CCCCN)NC(=O)[C@H](Cc4ccc(O)cc4)NC(=O)[C@H](CCC(N)=O)NC1=O)C(=O)N[C@@H](CCC(N)=O)C(=O)N[C@H](C(=O)N[C@@H](CCC(N)=O)C(=O)O)CSSC[C@H](NC(=O)[C@H](CO)NC(=O)[C@H](CO)NC(=O)[C@H](CC(N)=O)NC3=O)C(=O)N[C@@H]([C@@H](C)CC)C(=O)N[C@@H](CO)C(=O)N[C@@H](CCCN=C(N)N)C(=O)NCC(=O)N[C@@H](Cc1ccc(O)cc1)C(=O)N[C@@H](CCCN=C(N)N)C(=O)N[C@@H](CCC(N)=O)C(=O)NCC(=O)N[C@@H](Cc1ccc(O)cc1)C(=O)N2` [ACQFWSCNSSCISRGYRQGYCWGIQYKYCQCQ], the minimum inhibitory concentration (MIC) is 13.1 µM (≈ 49.9 µg/mL) against Bacillus subtilis, > 13.1 µM in test [2], 13.1 µM (≈ 49.9 µg/mL) in test [7] and 13.1 µM (≈ 49.9 µg/mL) in [6].
As for `CC[C@H](C)[C@H](NC(=O)[C@H](Cc1ccccc1)NC(=O)[C@H](CCCCN)NC(=O)[C@H](CCCCN)NC(=O)[C@H](CCC(=O)O)NC(=O)[C@H](CC(N)=O)NC(=O)[C@H](Cc1ccc(O)cc1)NC(=O)[C@H](CCCCN)NC(=O)[C@H](CC(N)=O)NC(=O)[C@H](CC(C)C)NC(=O)[C@H](CCC(=O)O)NC(=O)[C@H](CC(N)=O)NC(=O)[C@H](CC(C)C)NC(=O)[C@H](Cc1ccccc1)NC(=O)[C@H](CO)NC(=O)[C@@H](N)[C@@H](C)O)C(=O)O` [TSFLNELNKYNEKKFI], the minimum inhibitory concentration (MIC) was 31.4 µM (≈ 62.5 µg/mL) in test [1], 31.4 µM (≈ 62.5 µg/mL) in the test with Micrococcus luteus, 15.7 µM (≈ 31.2 µg/mL) against Bacillus subtilis 168 and 4.17 µM (≈ 8.3 µg/mL) in the test with Staphylococcus aureus.
Regarding `CC[C@H](C)[C@@H]1NC(=O)[C@H](CCCCN)NC(=O)[C@@H](NC(=O)[C@H](C)NC(=O)[C@@H](NC(=O)[C@H](CC(C)C)NC(=O)[C@H](CC(=O)O)NC(=O)[C@@H](NC(=O)CNC(=O)[C@H](CC(C)C)NC(=O)[C@H](CCCCN)NC(=O)[C@@H](NC(=O)[C@H](CC(C)C)NC(=O)[C@H](CC(=O)O)NC(=O)[C@H](CCCCN)NC(=O)CNC(=O)[C@H](CC(C)C)NC(=O)CNC(=O)[C@H](CCCCN)NC(=O)[C@H](CO)NC(=O)[C@H](C)NC(=O)[C@H](Cc2ccccc2)NC(=O)[C@H](CCCCN)NC(=O)[C@H](C)NC(=O)[C@H](C)NC(=O)CNC(=O)[C@H](CCCN=C(N)N)NC(=O)[C@H](CC(C)C)NC(=O)[C@@H](NC(=O)[C@H](CO)NC(=O)[C@H](Cc2ccccc2)NC(=O)[C@H](CC(C)C)NC(=O)CN)[C@@H](C)CC)[C@@H](C)O)C(C)C)C(C)C)CSSC[C@@H](C(=O)O)NC(=O)[C@H](CCC(N)=O)NC(=O)[C@H](CCCCN)NC(=O)[C@H](CO)NC1=O` [GLFSILRGAAKFASKGLGKDLTKLGVDLVACKISKQC], the MIC in test [1] turned out to be 1 µM (≈ 3.84 µg/mL); in [8], 1 µM (≈ 3.84 µg/mL); in test [9], 29 µM (≈ 111 µg/mL).
